According to patent US20160347807A1, “TARGETING P53 AND ITS DNA-BINDING DOMAIN” (UNIVERSITY OF UTAH RESEARCH DOUNDATION, priority 2014, published 2016):
“Also recorded” adds a separate entry of the source.

Legend:
T47D cells [1] = test: Rescue experiment using BFP-Bcl-XL (7-AAD) in T47D cells; assay type: cell-based, human; settings: 48 h after transfection, Bcl-XL overexpression
Procedure: T47D cells were co-transfected with 1 pmol of EGFP constructs and 1 pmol of BFP-Bcl-XL (BFP tag is necessary for gating Bcl-XL transfected cells). 48 h after transfection the 7-AAD assay was performed as described above. FACSCanto-II (BD-BioSciences) and FACSDiva software were used for EGFP and BFP gating. Excitation was set at 488 nm, and detected at 507 nm and 660 nm for EGFP and 7-AAD, respectively. BFP was excited at 405 nm and detected at 457 nm. Independent transfections of each construct were tested three times (n=3).

T47D cells [2] = test: Colony forming assay in T47D cells; assay type: cell-based, human; settings: eight days after treatment
Procedure: Transfected T47D cells were harvested 24 h post transfection and resuspended in RPMI (Invitrogen) at a concentration of 3.0×10^5 cells/mL. The Cytoselect® 96-well cell transformation assay (Cell Biolabs, San Diego, Calif.) was used following manufacturer's recommendations. Equal amount of 1.2% Agar Solution, 2×DMEM/20% FBS media, and cell suspension (1:1:1) were mixed and 75 μL of the mixture was added to a 96-well plate containing a solidified base agar layer (50 μL of previously solidified 1.2% Agar Solution), and allowed to solidify at 4° C. for 15 min. The following steps were performed according to the manufacture's recommendations. A Spectra Max M2 plate reader (Molecular Devices, Sunnyvale, Calif.) was used to detect fluorescence using a 485/520 nm filter set. Independent transfections of each construct were tested three times (n=3).

H1373 cells [3] = test: 7-AAD rescue experiment in H1373 cells with or without p53R248Wmut; assay type: cell-based, human; settings: H1373, 48 h post transfection; for apoptotic activity (7-AAD) when co-transfected with p53R248Wmut: dominant negative mutant overexpressed
Procedure: E-XL was created by inserting MTS from XL into EGFP-C1 vector. Lipofectamine was used as the transfection reagent as before. 48 h post transfection, cells were stained as described in the 7-AAD assay and gated for EGFP and BFP using the FACSCanto-II (BD-BioSciences) and FACSDiva software. Excitation for BFP was set at 405 nm and detected at 457 nm. The means from three separate experiments (n=3) were analyzed using two-way ANOVA with Bonferroni's post hoc test.

H1373 cells [4] = test: 7-AAD assay in H1373 cells; assay type: cell-based, human; settings: H1373 (p53 null), 48 h after transfection
Procedure: (§1) Transfected T47D, MCF-7, MDA-MB-231, HeLa and H1373 cells were pelleted and resuspended in 500 μL PBS (Invitrogen) containing 1 μM 7-aminoactinomycin D (7-AAD) (Invitrogen) for 30 min prior to analysis following the recommended protocol from the manufacturer. The assay was performed 48 h after transfection for T47D, MCF-7 and H1373 and 24 h after transfection for MDA-MB-231 and HeLa. Only EGFP positive cells were analyzed by using the FACS Canto-II (BD-BioSciences) with FACS Diva software. EGFP and 7-AAD were excited with the 488 nm laser, and were detected at 507 nm and 660 nm, respectively. Independent transfections of each construct were tested three times (n=3).
(§2) Transfected T47D, H1373, SKOV-3 and HeLa cells were pelleted and re-suspended in 500 μL PBS (Invitrogen) containing 1 μM 7-aminoactinomycin D (7-AAD) (Invitrogen) for 30 min prior to analysis. T47D and H1373 cells were analyzed 48 h after transfection, while SKOV-3 and HeLa cells were analyzed 24 h after transfection (time points optimized empirically). Only EGFP positive cells were assayed using the FACS Canto-II (BD-BioSciences) with FACS Diva software as previously. EGFP and 7-AAD were excited at 488 nm, and detected at 507 nm and 660 nm, respectively. Independent transfections of each construct were assayed three times (n=3). The highest value (EGFP positive cells stained with 7-AAD) was set at 100%, and the lowest at 0% (relative 7-AAD) as previously.

T47D cells [5] = test: TUNEL assay in T47D cells; assay type: cell-based, human; settings: 48 h after transfection
Procedure: T47D cells were harvested 48 h after transfection. In situ Death Detection Kit, TMR red (Roche, Mannheim, Germany) was used following manufacturer's recommendations as before. Cells were resuspended in PBS (Invitrogen) and analyzed via the FACSAria-II (BD-Biosciences, University of Utah Core Facility). EGFP and TMR red were excited at 488 nm and 563 nm, respectively, and FACSDiva software was used to analyze the data. Independent transfections of each construct were tested three times (n=3).

T47D cells [6] = test: Annexin V assay in T47D cells; assay type: cell-based, human; settings: 48 h after transfection
Procedure: 48 h after transfection, T47D cells were pelleted and resuspended in 400 μL of annexin-V binding buffer (Invitrogen) and incubated with 5 μL of annexin-APC (annexin-V conjugated to allophycocyanin, Invitrogen) for 15 min as before. Only transfected cells were analyzed as mentioned in 7-AAD assay. EGFP and APC were excited at 488 nm and 635 nm wavelengths, respectively and detected at their corresponding 507 nm and 660 nm wavelengths. Independent transfections of each construct were tested three times (n=3).

HeLa cells = test: 7-AAD assay in HeLa cells; assay type: cell-based, human; settings: 24 h after transfection
Procedure: as §1, §2

T47D cells [7] = test: 7-AAD assay in T47D cells; assay type: cell-based, human; settings: 48 h after transfection, EGFP positive cells only
Procedure: as §1, §2

MDA-MB-231 = test: 7-AAD assay in MDA-MB-231 cells; assay type: cell-based, human; settings: MDA-MB-231, 24 h after transfection
Procedure: as §1

MCF-7 = test: 7-AAD assay in MCF-7 cells; assay type: cell-based, human; settings: MCF-7, 48 h post transfection
Procedure: as §1

T47D cells [8] = test: Caspase-9 assay (SR FLICA) in T47D cells; assay type: cell-based, human; settings: 48 h after transfection
Procedure: T47D cells were probed 48 h after transfection using SR FLICA Caspase-9 Assay Kit (Immunochemistry Technologies, Bloomington, Minn.). Cells were incubated with SR FLICA Caspase-9 reagent for 60 min per manufacturer's recommendations, pelleted and resuspended in 300 μL 1× wash buffer (Immunochemistry Technologies). Only EGFP positive cells were analyzed by using the FACS Canto-II (BD-BioSciences) with FACS Diva software. EGFP and FLICA were excited with the 488 nm (emission filter 530/35) and the 561 laser (emission filter 585/15), respectively. Independent transfections of each construct were tested three times (n=3).
As previously described, 48 h after transfection, T47D cells were tested with SR FLICA Caspase-9 Assay Kit (Immunochemistry Technologies, Bloomington, Minn.). Cells were incubated with SR FLICA Caspase-9 reagent for 60 min, pelleted and re-suspended in 300 μL, 1× wash buffer (Immunochemistry Technologies). The FACS Canto-II with FACS Diva software was used to analyzed only EGFP positive cells stained with caspase-9, both were excited with the 488 nm (emission filter 530/35) and the 561 nm laser (emission filter 585/15), respectively. Independent transfections of each construct were assayed three times (n=3). The highest value (EGFP positive cells stained with caspase-9) was set as 100% and the lowest as 0% (relative caspase-9).

SKOV-3 cells = test: 7-AAD assay in SKOV-3 cells; assay type: cell-based, human; settings: SKOV-3 (p53 null), 24 h after transfection
Procedure: as §2

p53-Luc Cis-Reporter = test: p53 reporter gene (dual luciferase) assay in T47D cells; assay type: cell-based, human; settings: 24 h post transfection
Procedure: Luminescence was detected 24 h post transfection using PlateLumino (Stratec Biomedical Systems, Birkenfeld, Germany). Independent transfections of each constructs were assayed three times (n=3). The highest value was set at 100% and lowest value (untreated cells) was set as 0% (relative luminescence).

T47D cells [9] = test: TMRE assay (MOMP) in T47D cells; assay type: cell-based, human; settings: 36 h after transfection
Procedure: 36 h after transfection T47D cells were incubated with 100 nM tetramethylrhodamineethylester (TMRE) (Invitrogen) for 30 min at 37° C. T47D cells were pelleted and resuspended in 300 μL annexin-V binding buffer (1×) (Invitrogen). Only EGFP positive cells were analyzed by using the FACS Canto-II (BD-BioSciences) with FACS Diva software. EGFP was excited with the 488 nm laser with emission filter 530/35 and TMRE was excited with the 561 nm laser with the emission filter 585/15. Mitochondrial depolarization (loss in TMRE intensity) correlates with an increase in MOMP. Independent transfections of each construct were tested three times (n=3).
36 h after transfection T47D cells were incubated with 100 nM tetramethylrhodamine, ethylester (TMRE) (Invitrogen) for 30 min at 37° C., pelleted and resuspended in 300 μL annexin-V binding buffer (1×) (Invitrogen). The FACS Canto-II with FACS Diva software was used to analyze only EGFP positive cells (excited at 488 nm with emission 530/35) stained with TMRE (excited at 561 nm laser with the emission 585/15). Loss in TMRE intensity represents mitochondrial depolarization, which correlates with an increase in mitochondrial outer membrane permeabilization (MOMP). Independent transfections of each construct were assayed three times (n=3). The highest MOMP value was set as 100% and the lowest as 0% (relative MOMP) as before.

endogenous Bcl-XL = target: T1, endogenous Bcl-XL (Homo sapiens, UniProt Q07817); test: Co-immunoprecipitation with anti-GFP antibody, western blot for Bcl-XL; assay type: binding; settings: T47D lysate 24 h post transfection, anti-GFP pull-down
T1 construct: endogenous in cells; host or cells: T47D human breast tumor cells
Procedure: Anti-GFP antibody (ab290, Abcam) was coupled to dynabeads using Dynabeads Antibody Coupling Kit (Invitrogen). 24 h post transfection, T47D cells were prepared using the Dynabeads Co-Immunoprecipitation Kit (Invitrogen). Cell pellets were lysed using extraction buffer B (1×IP, […] NaCl, 2 mM MgCl2, 1 mM DTT, 1% protease inhibitor). The lysate was incubated for 30 min at 4° C. with 1.5 mg of dynabeads coupled with anti-GFP antibody, and co-IP was performed per the company's protocol. The final protein complex was denatured and western blot was performed by using Bcl-XL antibody (ab 2568, Abcam).

Row | Substance | apoptotic activity (7-AAD) on cotransfection of BFP-Bcl-XL (rescue) (T47D cells [1]) | transformative ability (colonies, relative fluorescence units) (T47D cells [2]) | apoptosis (7-AAD) in the absence of p53R248Wmut (H1373 cells [3]) | apoptotic activity (7-AAD) when co-transfected with p53R248Wmut (H1373 cells [3]) | 7-AAD positive cells (late apoptosis) (H1373 cells [4]) | TUNEL positive cells (DNA fragmentation) (T47D cells [5]) | Annexin V positive cells (apoptotic potential) (T47D cells [6]) | 7-AAD positive cells (late apoptosis) (HeLa cells) | 7-AAD positive cells (late apoptosis) (T47D cells [7]) | 7-AAD positive cells (late apoptosis) (MDA-MB-231) | 7-AAD positive cells (late apoptosis) (MCF-7) | caspase-9 activation (T47D cells [8]) | 7-AAD positive cells (late apoptosis) (SKOV-3 cells) | nuclear transcriptional activity (relative luminescence) (p53-Luc Cis-Reporter) | % MOMP induction (loss of TMRE fluorescence) (T47D cells [9]) | co-immunoprecipitation with Bcl-XL (endogenous Bcl-XL)
1 | DBD-XL: EGFP, DNA binding domain of p53 and MTS from Bcl-XL | significantly reduced | significant decrease in transformative ability | significantly higher apoptosis compared to their negative controls E-XL and EGFP | capable of rescuing apoptotic activity | significantly higher apoptotic activity compared to p53-XL | not statistically significant from each other | significantly higher apoptotic response than p53-XL; also recorded: significantly higher than the negative control E-XL | statistically significant from p53-XL | statistically higher than the negative control E-XL; also recorded: not statistically significant from each other | significantly higher apoptotic activity compared to p53-XL | significantly higher apoptotic activity compared to p53-XL | higher caspase-9 activation than E-XL | – | – | – | –
2 | p53-BakMTS: MTS from Bak fused to the C-terminus of EGFP-p53 | – | – | – | – | statistically higher from their negative control E-BakMTS | – | – | significant from their corresponding negative controls | significant apoptotic effect compared to their corresponding negative controls; also recorded: significantly higher apoptosis compared to cells transfected with MTS negative controls; also recorded: induce apoptosis similarly to wt p53 | – | – | significant effect; also recorded: not significantly higher from wt p53 | significantly higher than their negative control E-BakMTS | no nuclear activity | not significantly higher from wt p53 | –
3 | p53-XL: full length p53 with EGFP on the amino terminus and the MTS from Bcl-XL (XL) on the C-terminus | significantly reduced | significant decrease in transformative ability | significantly higher apoptosis compared to their negative controls E-XL and EGFP | capable of rescuing apoptotic activity | – | not statistically significant from each other | significantly higher than the negative control E-XL | – | not statistically significant from each other | – | – | higher caspase-9 activation than E-XL; also recorded: triggers caspase-9 activation significantly more than DBD-XL | – | – | – | co-immunoprecipitated; also recorded: co-immunoprecipitates with endogenous Bcl-XL
